Read-outs that look alike come from different tables or passages of the source.
Assays:
PR-B = molecular target: T1, PR-B (Homo sapiens, UniProt P06401); test: Transactivation test on antagonistic activity on PR-B; format: cell-based
T1 construct: expressed in transfected cells
T1 sequence (P06401 1-933): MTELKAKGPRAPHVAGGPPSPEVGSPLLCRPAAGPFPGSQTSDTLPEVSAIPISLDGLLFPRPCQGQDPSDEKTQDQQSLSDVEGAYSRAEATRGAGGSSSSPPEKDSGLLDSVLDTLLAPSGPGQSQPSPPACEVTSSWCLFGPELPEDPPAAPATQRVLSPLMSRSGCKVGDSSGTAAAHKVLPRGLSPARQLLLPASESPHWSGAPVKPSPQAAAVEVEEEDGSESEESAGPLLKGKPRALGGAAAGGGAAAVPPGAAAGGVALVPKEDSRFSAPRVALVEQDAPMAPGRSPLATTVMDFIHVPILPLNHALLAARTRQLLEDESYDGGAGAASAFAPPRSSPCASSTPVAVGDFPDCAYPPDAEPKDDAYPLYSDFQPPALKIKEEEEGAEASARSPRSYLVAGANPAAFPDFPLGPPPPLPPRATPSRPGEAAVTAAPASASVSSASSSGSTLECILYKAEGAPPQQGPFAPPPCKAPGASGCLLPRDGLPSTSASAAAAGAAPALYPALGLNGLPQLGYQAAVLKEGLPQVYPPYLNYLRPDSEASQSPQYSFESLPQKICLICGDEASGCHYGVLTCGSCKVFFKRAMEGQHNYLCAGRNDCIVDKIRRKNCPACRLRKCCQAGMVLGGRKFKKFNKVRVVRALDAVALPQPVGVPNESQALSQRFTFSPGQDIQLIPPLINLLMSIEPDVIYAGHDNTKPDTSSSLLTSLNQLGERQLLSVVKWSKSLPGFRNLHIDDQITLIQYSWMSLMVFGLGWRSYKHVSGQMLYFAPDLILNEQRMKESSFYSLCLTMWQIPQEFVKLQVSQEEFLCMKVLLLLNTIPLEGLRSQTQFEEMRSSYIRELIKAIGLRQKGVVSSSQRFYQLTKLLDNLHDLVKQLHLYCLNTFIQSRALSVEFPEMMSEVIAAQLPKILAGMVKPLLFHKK
Description: (§1) The transactivation assay is carried out as described in WO 02/054064.

PR-A = molecular target: T2, PR-A (Homo sapiens, UniProt P06401); test: Transactivation test on antagonistic activity at PR-A; format: cell-based; settings: for IC50: antagonism at PR-A; for Emax: read-out: Efficacy (antagonism at PR-A) [%]
T2 construct: expressed in transfected cells
T2 sequence (P06401 1-769 isoform P06401-2): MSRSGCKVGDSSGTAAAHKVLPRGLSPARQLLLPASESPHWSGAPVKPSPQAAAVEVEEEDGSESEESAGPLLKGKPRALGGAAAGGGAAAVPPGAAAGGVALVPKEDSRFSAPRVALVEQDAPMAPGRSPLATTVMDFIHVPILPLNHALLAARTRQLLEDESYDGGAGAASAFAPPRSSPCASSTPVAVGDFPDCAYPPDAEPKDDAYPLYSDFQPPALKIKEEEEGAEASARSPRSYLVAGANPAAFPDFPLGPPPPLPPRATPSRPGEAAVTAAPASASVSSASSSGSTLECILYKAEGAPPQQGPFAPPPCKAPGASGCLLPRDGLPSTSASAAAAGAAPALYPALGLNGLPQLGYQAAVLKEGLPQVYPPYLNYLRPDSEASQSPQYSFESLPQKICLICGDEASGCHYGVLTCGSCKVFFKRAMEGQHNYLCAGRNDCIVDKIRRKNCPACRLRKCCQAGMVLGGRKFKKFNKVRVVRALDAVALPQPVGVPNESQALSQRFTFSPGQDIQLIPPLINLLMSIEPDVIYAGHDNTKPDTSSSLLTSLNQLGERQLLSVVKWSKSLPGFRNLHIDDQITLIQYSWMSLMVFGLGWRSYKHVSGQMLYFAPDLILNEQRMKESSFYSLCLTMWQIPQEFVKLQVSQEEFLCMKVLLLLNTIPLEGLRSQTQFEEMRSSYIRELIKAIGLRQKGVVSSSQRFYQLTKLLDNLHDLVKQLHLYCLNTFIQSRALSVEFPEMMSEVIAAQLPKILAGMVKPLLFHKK
Description: as §1

[1] = antagonistic activity on PR-B, read-out: IC50

Molecule: rac-N-(3-Chloro-4-cyanophenyl)-2-hydroxy-2-cyclohexyl-2-(4-fluorophenyl)-ethynylacetamide [Example 6]
- IC50 (PR-B; [1]): 0.005 µM

Molecule: N#Cc1ccc(NC(=O)C(O)(Cc2ccccc2)C2CCCC2)cc1Cl (racemic) [Example 32, rac-N-(3-Chloro-4-cyanophenyl)-2-cyclopentyl-2-hydroxy-3-phenylpropionamide]
- IC50 (PR-B; [1]): 0.027 µM

Molecule: N#Cc1ccc(NC(=O)C(O)(C#Cc2ccc(O)cc2)C2CCCCC2)cc1Cl (racemic) [Example 10, rac-N-(3-Chloro-4-cyanophenyl)-2-hydroxy-2-cyclohexyl-2-(4-hydroxyphenyl)-ethynylacetamide]
- IC50 (PR-B): 0.007 µM

Molecule: N#Cc1ccc(NC(=O)C(O)(Cc2ccccc2)C2CCN(C(=O)c3ccno3)CC2)cc1C(F)(F)F (single isomer, unassigned) [Example 113, N-(4-Cyano-3-trifluoromethylphenyl)-2-hydroxy-2-[1-(isoxazole-5-carbonyl)piperidin-4-yl]-3-phenyl-propionamide]
- IC50 (PR-A): 0.0217 µM
- Emax (PR-A): 97.9%

Molecule: N#Cc1ccc(NC(=O)C(O)(Cc2cccc(-c3ccsc3)c2)C2CCCCC2)cc1C(F)(F)F (stereo not drawn) [Example 59, N-(4-Cyano-3-trifluoromethylphenyl)-2-cyclohexyl-2-hydroxy-3-(3-thiophen-3-ylphenyl)propionamide]
- IC50 (PR-A): 0.0468 µM
- Emax (PR-A): 103%

Molecule: COc1ccc(CC(O)(C(=O)Nc2ccc(C#N)c(Cl)c2)C2CCCCC2)cc1 (racemic) [Example 16, rac-N-(3-Chloro-4-cyanophenyl)-2-cyclohexyl-2-hydroxy-3-(4-methoxyphenyl)-propionamide]
- IC50 (PR-B; [1]): 0.017 µM

Molecule: N#Cc1ccc(NC(=O)C(O)(Cc2ccccc2)C2CCN(C(=O)c3ccccc3)CC2)cc1C(F)(F)F (single isomer, unassigned) [Example 101a, 2-(1-Benzoylpiperidin-4-yl)-N-(4-cyano-3-trifluoromethylphenyl)-2-hydroxy-3-phenylpropionamide]
- IC50 (PR-A): 0.0147 µM
- Emax (PR-A): 103%

Molecule: N#Cc1ccc(NC(=O)C(O)(C#Cc2ccccc2)C2CCCCC2)cc1Cl (single isomer, unassigned; (-)) [Example 2b, (−)-N-(3-chloro-4-cyanophenyl)-2-hydroxy-2-cyclohexyl-2-phenylethynylacetamide]
- IC50 (PR-B; [1]): 0.0018 µM

Molecule: CNC(=O)c1cccc(-c2cccc(CC(O)(C(=O)Nc3ccc(C#N)c(C(F)(F)F)c3)C3CCN(C(=O)c4ccccc4)CC3)c2)c1 (single isomer, unassigned) [Example 159, N-Methyl-3′-[2-(1-benzoylpiperidin-4-yl)-2-(4-cyano-3-trifluoromethylphenyl-carbamoyl)-2-hydroxyethyl]biphenyl-3-carboxamide]
- IC50 (PR-A): 0.0159 µM
- Emax (PR-A): 96.2%

Molecule: N#Cc1ccc(NC(=O)C(O)(Cc2ccccc2)C2CCCC2)cc1C(F)(F)F (racemic) [Example 39, rac-N-(4-Cyano-3-trifluoromethylphenyl)-2-cyclopentyl-2-hydroxy-3-phenyl-propionamide]
- IC50 (PR-B; [1]): 0.017 µM

Molecule: Cc1ccc(C#CC(O)(C(=O)Nc2ccc(C#N)c(Cl)c2)C2CCCCC2)cc1 (racemic) [Example 4, rac-N-(3-Chloro-4-cyanophenyl)-2-hydroxy-2-cyclohexyl-2-(4-methylphenyl)-ethynylacetamide]
- IC50 (PR-B): 0.002 µM

Molecule: N#Cc1ccc(NC(=O)C(O)(Cc2ccccc2)C2CCCCC2)cc1Cl (racemic) [Example 3, rac-N-(3-Chloro-4-cyanophenyl)-2-hydroxy-2-cyclohexyl-3-phenylpropanamide]
- IC50 (PR-B): 0.0056 µM

Molecule: N#Cc1ccc(NC(=O)C(O)(Cc2cccc(-c3cccc(C(N)=O)c3)c2)C2CCN(S(=O)(=O)c3ccc(F)cc3)CC2)cc1C(F)(F)F (single isomer, unassigned) [Example 172, 3′-{2-(4-Cyano-3-trifluoromethyl-phenylcarbamoyl)-2-[1-(4-fluoro-benzenesulfonyl)piperidin-4-yl]-2-hydroxyethyl}biphenyl-3-carboxamide]
- IC50 (PR-A): 0.0012 µM
- Emax (PR-A): 101%

Molecule: rac-N-(3-Chloro-4-cyanophenyl)-2-hydroxy-2-cyclohexyl-2-(4-trifluoromethyl-phenyl)ethynylacetamide [Example 5]
- IC50 (PR-B; [1]): 0.0079 µM

Molecule: CS(=O)(=O)N1CCN(Cc2cccc(CC(O)(C(=O)Nc3ccc(C#N)c(C(F)(F)F)c3)C3CCCCC3)c2)CC1 (stereo not drawn) [Example 84, N-(4-Cyano-3-trifluoromethylphenyl)-2-cyclohexyl-2-hydroxy-3-[3-(4-methane-sulfonylpiperazin-1-ylmethyl)phenyl]-propionamide]
- IC50 (PR-A): 0.0512 µM
- Emax (PR-A): 102%

Molecule: N#Cc1ccc(NC(=O)C(O)(Cc2ccccc2)C2CCN(C(=O)C3CC3)CC2)cc1C(F)(F)F (single isomer, unassigned) [Example 108, N-(4-Cyano-3-trifluoromethylphenyl)-2-(1-cyclopropanecarbonylpiperidin-4-yl)-2-hydroxy-3-phenylpropion amide]
- IC50 (PR-A): 0.0361 µM
- Emax (PR-A): 96%

Molecule: N#Cc1ccc(NC(=O)C(O)(C#Cc2ccc(C(=O)O)cc2)C2CCCCC2)cc1Cl (racemic) [Example 12, rac-N-(3-Chloro-4-cyanophenyl)-2-hydroxy-2-cyclohexyl-2-(4-carboxyphenyl)-ethynylacetamide]
- IC50 (PR-B): 0.0018 µM
